In patent US9458198B1, “Cyclic peptide-based NPR-B agonists” (priority 2009, dated 2016):

Columns and labels:
NPR-B = molecular target: T1, NPR-B (Homo sapiens, UniProt P20594); assay: NPR-B induced production of cyclic GMP in GTM-3 cells; assay type: cell-based; settings: EC50, cyclic GMP production, GTM-3 cells, FIG. 2, 4-Parameter Logistic Equation
T1 construct: a functional assay using endogenously NPR-B expressing GTM-3 cells; endogenous in cells; host or cells: GTM-3 (transformed human trabecular meshwork cells)
T1 sequence (P20594 23-1047): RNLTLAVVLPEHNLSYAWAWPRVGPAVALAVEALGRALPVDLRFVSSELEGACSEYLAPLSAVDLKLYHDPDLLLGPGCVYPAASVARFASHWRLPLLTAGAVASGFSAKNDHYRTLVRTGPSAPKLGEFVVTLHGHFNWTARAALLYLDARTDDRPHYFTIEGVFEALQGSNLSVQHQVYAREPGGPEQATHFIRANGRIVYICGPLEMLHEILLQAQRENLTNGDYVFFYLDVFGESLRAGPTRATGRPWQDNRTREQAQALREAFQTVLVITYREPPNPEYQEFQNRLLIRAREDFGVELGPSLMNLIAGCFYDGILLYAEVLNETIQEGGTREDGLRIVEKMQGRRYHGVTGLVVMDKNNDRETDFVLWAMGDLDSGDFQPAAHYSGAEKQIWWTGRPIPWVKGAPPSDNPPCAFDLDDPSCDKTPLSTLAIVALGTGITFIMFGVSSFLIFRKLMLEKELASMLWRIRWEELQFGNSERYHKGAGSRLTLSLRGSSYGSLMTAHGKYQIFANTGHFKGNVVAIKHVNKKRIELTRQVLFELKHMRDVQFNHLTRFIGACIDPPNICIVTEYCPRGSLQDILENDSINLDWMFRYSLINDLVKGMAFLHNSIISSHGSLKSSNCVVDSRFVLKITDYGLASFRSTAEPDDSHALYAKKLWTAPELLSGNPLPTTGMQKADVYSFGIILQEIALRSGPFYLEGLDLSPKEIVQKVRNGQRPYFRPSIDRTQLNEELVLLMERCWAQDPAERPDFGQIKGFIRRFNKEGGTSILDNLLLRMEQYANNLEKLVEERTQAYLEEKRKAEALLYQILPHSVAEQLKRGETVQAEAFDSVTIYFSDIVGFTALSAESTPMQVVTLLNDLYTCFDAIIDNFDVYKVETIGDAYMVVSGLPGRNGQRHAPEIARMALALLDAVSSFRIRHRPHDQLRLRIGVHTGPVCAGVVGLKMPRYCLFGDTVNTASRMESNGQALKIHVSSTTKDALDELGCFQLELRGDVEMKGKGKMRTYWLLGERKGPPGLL
Outline: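 GTM-3 cells with endogenous NPR-B were washed and preincubated 15 min at room temperature in medium with 1 mM IBMX. Compounds were tested at final 45 μM to 20 nM; dose-dependent cGMP production gave Emax and EC50.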

[1] = system: human renal carcinoma cells; settings: 100 μM; cited from earlier work
AtT-20 cells = settings: cited from earlier work
NPR-A = NPR-A (Rattus norvegicus, UniProt P18910); assay: cell-based
Sequence of NPR-A (P18910 29-1057): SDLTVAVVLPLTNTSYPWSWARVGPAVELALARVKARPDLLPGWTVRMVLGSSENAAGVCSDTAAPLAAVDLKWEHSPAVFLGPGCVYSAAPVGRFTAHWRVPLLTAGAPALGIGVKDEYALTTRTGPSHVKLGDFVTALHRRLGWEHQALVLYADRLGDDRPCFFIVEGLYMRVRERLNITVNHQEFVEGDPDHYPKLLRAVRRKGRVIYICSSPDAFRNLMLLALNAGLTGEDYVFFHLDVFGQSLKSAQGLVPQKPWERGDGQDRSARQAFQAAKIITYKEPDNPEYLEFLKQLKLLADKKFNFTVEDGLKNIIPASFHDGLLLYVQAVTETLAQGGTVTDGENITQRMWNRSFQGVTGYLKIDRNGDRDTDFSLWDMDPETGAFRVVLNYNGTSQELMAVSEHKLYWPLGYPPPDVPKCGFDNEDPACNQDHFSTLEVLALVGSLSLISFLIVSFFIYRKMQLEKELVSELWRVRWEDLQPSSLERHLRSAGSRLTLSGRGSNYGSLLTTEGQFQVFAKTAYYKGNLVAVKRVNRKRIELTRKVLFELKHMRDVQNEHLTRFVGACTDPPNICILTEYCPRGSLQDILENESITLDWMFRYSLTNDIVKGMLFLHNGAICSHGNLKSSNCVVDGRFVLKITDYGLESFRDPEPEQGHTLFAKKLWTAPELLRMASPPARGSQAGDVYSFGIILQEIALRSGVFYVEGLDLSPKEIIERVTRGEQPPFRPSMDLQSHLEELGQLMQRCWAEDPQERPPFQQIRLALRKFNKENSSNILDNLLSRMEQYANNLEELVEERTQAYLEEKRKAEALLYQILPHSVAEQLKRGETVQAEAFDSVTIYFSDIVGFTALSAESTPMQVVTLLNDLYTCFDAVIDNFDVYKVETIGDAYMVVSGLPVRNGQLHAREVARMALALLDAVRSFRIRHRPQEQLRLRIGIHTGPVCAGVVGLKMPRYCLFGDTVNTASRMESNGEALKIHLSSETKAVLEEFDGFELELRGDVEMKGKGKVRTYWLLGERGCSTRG
Experimental: In this homogenous assay, the cells are stimulated in suspension with the test compound and the production of cyclic GMP (cGMP) is determined, from which EC50 values are calculated.
Detached cells are harvested in 20 ml PBS and centrifuged for 10 min at 200×g at room temperature.
20 μl of cells (2.5×10^3 cells) are added to each well of a 96 well white optical bottom tissue culture plate (Nunc, Germany). 10 μl of compound dilution is added and the cells are stimulated for 25 min. at room temperature. The stimulation is stopped by addition of 20 μl of Lysis buffer (reagent included in cGMP Assay Kit).
Determination of cGMP: The amount of produced cGMP in the cells is determined using HitHunter™ cGMP Assay kit (DiscoveRX) according to manufacturer's instructions.
Dilutions are prepared in Medium supplemented with IBMX (1 mM).

[2] = system: small-cell lung cancer cells; settings: 100 nM; cited from earlier work
chondrocytes = settings: low doses 10 to 100 pM, at the highest dose; cited from earlier work

CC[C@H](C)[C@@H]1NC(=O)[C@H](CCCNC(=N)N)NC(=O)[C@H](CC(=O)O)NC(=O)[C@H](CC(C)C)NC(=O)[C@H](CCCCN)NC(=O)[C@H](CC(C)C)NC(=O)CNC(=O)[C@H](Cc2ccccc2)NC(=O)[C@@H](NC(=O)CNC(=O)[C@H](CCCCN)NC(=O)[C@H](CO)NC(=O)[C@H](CC(C)C)NC(=O)CN)CSSC[C@@H](C(=O)O)NC(=O)CNC(=O)[C@H](CC(C)C)NC(=O)CNC(=O)[C@H](CO)NC(=O)[C@H](CCSC)NC(=O)[C@H](CO)NC(=O)CNC1=O [CNP, C-type natriuretic peptide]
EC50 (NPR-B): 38.8 nM | decrease in cell number [1]: 10% | stimulation of cGMP production (AtT-20 cells): up to 200 fold | EC50 (NPR-A): 1600 nM | decrease in the number of cells [2]: 39% | increase in cellularity (chondrocyte proliferation) (chondrocytes): up to 43%
